# Legend:
# [1] = tested on: DNA isolated from HeLa cells; test: Pt associated with DNA isolated from treated HeLa cells; assay type: cell-based, human; conditions: 1 µM compound, 6 h, mean ± SD
# Description: page 16: Table S1: […] concentration of tested compounds for 6 ha. […] Figure S19: A. Representative histograms obtained by flow cytometric analysis of calreticulin exposure in HeLa cells treated with indicated compounds. B. An example of gating DAPI negative population. Only DAPI-negative cells were taken for the evaluation.
# HeLa cells [2] = test: Wound healing assay; assay type: cell-based, human; conditions: 24 h, multiples of IC50,72h
# Method: Figure 7 (A–E) Wound healing assay. The monolayer of HeLa cells was scratched with a 10 μL tip, and a starving medium containing the tested complexes was added. The shots were taken at times 0 and 24 h. (A) Control, non-treated cells; (B) cells treated with complex 3; (C) cells treated with complex 4. […] (E) Evaluation of wound healing assay. Bars represent gap size vs. Control (100%), following a 24 h incubation with the investigated compounds. Light gray bars: complex 3; dark gray bars: complex 4; black bar: complex 2. (F) Re-adhesion assay. […] Following trypsinization, the cells were resuspended in Dulbecco’s modified Eagle medium (DMEM), counted, left to reconstitute adhesive membrane proteins for 30 min, and re-seeded at the density of 3× 10^4 cells/100 μL/well. After 30 min of incubation at 37 °C, the re-adhesion activity was determined as described in the Experimental Section. Data represents mean ± SD, n = 8; *p < 0.05, **p < 0.01, ***p < 0.001.
# HeLa cells were grown close to confluence in 6-well plates in a complete medium, and then the medium was replaced with a serum-free medium [supplemented with 0.1% bovine serum albumin (BSA)], and the cells were incubated for an additional 24 h. The HeLa monolayers were scratched with a 10 μL pipet tip, and the cells were washed twice with PBS to remove peeled cells and treated with tested compounds at indicated concentrations. The scratched areas were shot immediately after the complex addition and then after 24 h with a Canon EOS 1200D camera attached to an Olympus CKX41 inverted microscope with a 10×/0.25 phase contrast objective. Digital images were taken by the QuickPHOTO MICRO 3.1 program (PROMICRA, Prague, Czech Republic) and processed with the TScratch analysis software (ETH Zürich, Switzerland). The cell’s ability to migrate into the open area was expressed as a percentage of control.
# MCF-7 = test: MTT antiproliferative assay, 72 h; assay type: cell-based, human; conditions: MTT, 72 h incubation, mean ± SD; read-out: IC50 MCF-7
# Method: (§1) Cells were treated with the tested compounds in a final volume of 200 μL/well. […] Calbiochem, Darmstadt, Germany) was added, and the cells were incubated for an additional 2–4 h. The medium was removed, and the insoluble formazan product was dissolved in 100 μL/well DMSO. The absorbance was read at 570 nm (vs 620 nm) using an Absorbance Reader (SUNRISE TECAN SCHOELLER). The read values were converted to the percentage of control. […] All experiments were made in triplicate.
# A2780cisR = test: MTT antiproliferative assay, 72 h; assay type: cell-based, human; conditions: MTT, 72 h incubation, mean ± SD; read-out: IC50 A2780cisR
# Method: as §1
# HeLa = test: MTT antiproliferative assay, 72 h; assay type: cell-based, human; conditions: MTT, 72 h incubation, mean ± SD; read-out: IC50 HeLa
# Method: as §1
# HCT-116 = test: MTT antiproliferative assay, 72 h; assay type: cell-based, human; conditions: MTT, 72 h incubation, mean ± SD; read-out: IC50 HCT-116
# Method: as §1
# MDA-MB-231 = test: MTT antiproliferative assay, 72 h; assay type: cell-based, human; conditions: MTT, 72 h incubation, mean ± SD; read-out: IC50 MDA-MB-231
# Method: as §1
# A2780 = test: MTT antiproliferative assay, 72 h; assay type: cell-based, human; conditions: MTT, 72 h incubation, mean ± SD; read-out: IC50 A2780
# Method: as §1
# HeLa cells [3] = test: Cellular accumulation of platinum (ICP-MS); assay type: cell-based, human; conditions: for cellular uptake 0.1 μM/24 h: 0.1 μM complex; for cellular uptake 1 μM/6 h: 1 μM complex; for cellular uptake 10 μM/6 h: 10 μM complex
# Method: Briefly, 3 × 10^6 cells were seeded in 100 mm culture dishes and grown overnight. The cells were exposed to the tested complexes at indicated concentrations for indicated periods. […] The pellets were digested using the microwave acid (HCl) digestion system (CEM Mars). The platinum quantity taken up by the cells was determined by inductively coupled plasma mass spectrometry (ICP–MS). All experiments were performed in triplicate.
# MRC-5 = test: MTT assay in non-cancerous fibroblasts, 72 h; assay type: cell-based; conditions: non-cancerous human fibroblasts, 72 h incubation, mean ± SD
# Method: as §1, with “The absorbance was read at 570 nm (vs 620 nm) using an Absorbance Reader (SUNRISE TECAN SCHOELLER).” left out
# COX-2 in HeLa cells = test: Western blotting of COX-2; assay type: cell-based, human; conditions: 24 h, 1×, 3× IC50, Western blot
# Method: (B) Quantitative evaluation of Western blotting data; the relative expression of COX-2 normalized to GAPDH. Data represents the mean ± SD of two experiments. The stars indicate the statistical significance of difference vs control determined with the Student t-test (*p < 0.05, **p < 0.01, ***p < 0.001).
# HeLa cells were seeded in 60 mm dishes at a density of 3 × 10^5 cells/dish and cultured for 20 h. The cells were then treated with the tested compounds at concentrations indicated in the text. After 24 h of treatment, the cells were scraped, washed, and pelleted. […] 4–20% SDS-PAGE (sodium dodecyl sulfate-polyacrylamide gel electrophoresis) (Mini-PROTEAN TGX Precast Gel) was used to resolve the proteins. After transferring to the polyvinylidene fluoride membrane, the proteins were detected using appropriate antibodies: anti-GAPDH antibody (mouse, Sigma-Aldrich), Anti-COX-2 (rabbit, Abcam), Anti-α-, β-, or γ-tubulin (all rabbit, Abcam), Anti-β-actin (mouse, Abcam), Goat Anti-Rabbit IgG(HRP) (Abcam; HRP = horseradish peroxidase), and Goat Anti-Mouse IgG(HRP) (ThermoFisher Scientific). SignalFire ECL Reagent (A + B) was used as a substrate for HRP, and the luminescence was recorded with Amersham Imager 680. The densities in the images were assessed with the Aida image analysis software.
# HeLa cells [4] = test: Mitochondrial membrane potential (TMRE, flow cytometry); assay type: cell-based, human; conditions: 10× IC50, 1 h, vs untreated control
# Method: Figure 4 Changes in the mitochondrial membrane potential Δψm in HeLa cells. The cells were treated with Pt compounds at the concentrations corresponding to 10× IC50 for 1 h and subsequently stained with TMRE. The fluorescence was measured by flow cytometry. Data represents mean ± SD from three independent experiments, *p < 0.01.
# HeLa cells were seeded (6-well plates, 3 × 10^5 cells/well), grown overnight, and then treated with the tested compounds for 1 h. The medium was removed, and a fresh medium containing TMRE (Thermo Fisher Scientific) at a final concentration of […] in 500 μL was added. The cells were incubated for 30 min at 37 °C and then harvested using trypsin. TMRE fluorescence was measured with a fluorescence-activated cell sorting (FACS) Verse flow cytometer (Becton Dickinson), and the data were analyzed using the ModFit LT 4.1 (Verity Software House) software. The experiment was performed in triplicate.
# [5] = Partition coefficient, shake-flask method; assay type: physicochemical; conditions: octanol/water
# Method: The “shake flask” method was used to measure the partition coefficients (P) of platinum compounds. The compounds were dissolved in octanol-saturated water (OSW) containing 200 mM NaCl. […] After careful separation of the layers with a fine-tip pipet, the Pt content in individual phases was determined by flameless atomic absorption spectrometry. The partition coefficients were calculated as the concentration ratio of the compound in the octanol layer to that in the aqueous layer, log P = log([Pt]WSO/[Pt]OSW).
# [6] = tested on: HeLa cells / Thp-1/PMA macrophages; test: Phagocytosis of treated HeLa cells by Thp-1/PMA macrophages; assay type: cell-based, human; conditions: HeLa treated 24 h at 1× or 3× IC50,72h, co-incubated 2.5 h with Thp-1/PMA macrophages
# Method: Figure 8 Hallmarks of ICD. (A) Extracellular ATP levels in HeLa cell supernatants. […] (B) Extracellular level of HMGB1. […] (C) Calreticulin exposure to the cell surface. […] The surface calreticulin exposure was determined in 4′,6-diamidino-2-phenylindole dihydrochloride (DAPI)-negative cell population. Relative fluorescence intensity was calculated as the median fluorescence of the population of treated cells/median fluorescence of untreated control cells. The data in panels A, B, and C are shown as a mean of 4–5 measurements ± SD. Statistical significance from untreated control was determined with the Student t-test (*p ≤ 0.05, **p ≤ 0.01, and ^#p ≤ 0.001). (D) Quantitative evaluation of phagocytosis of HeLa cells treated with the investigated compounds by human Thp-1/PMA macrophages (analyzed by flow cytometry). […] Error bars are the SEMs calculated from three independent experiments. The stars denote a significant difference from untreated control (*p ≤ 0.05, **p ≤ 0.01) as calculated by the […] Student t-test. […]
# Human monocytic leukemia cells Thp-1 (obtained from American Type Culture Collection, ATCC) were differentiated into macrophages with phorbol 12-myristate 13-acetate (PMA, 100 nM) for 24 h. […] Phagocytosis was evaluated using flow cytometry (BD FACSVerse), and data were analyzed with FCS Express 7 (DeNovo software; Glendale, CA). […]
# HeLa cells [7] = test: HMGB1 release (ELISA); assay type: cell-based, human; conditions: 1×, 2×, 3× IC50, 20 h
# Method: (B) Extracellular level of HMGB1. […] The data in panels A, B, and C are shown as a mean of 4–5 measurements ± SD. Statistical significance from untreated control was determined with the Student t-test (*p ≤ 0.05, **p ≤ 0.01, and ^#p ≤ 0.001).
# HeLa cells were seeded in 24-well plates at a density of 10^4 cells/well and grown overnight. The medium was removed, and a fresh medium (DMEM, 1% BSA, no FBS) containing indicated concentrations of tested complexes was added (300 μL). Following a 20 h treatment, medium samples were withdrawn, and the HMGB1 content was determined using an HMGB1 ELISA Kit (IBL international) following the instructions for use. Cell counts in corresponding wells were determined using Automated Cell Counter (Bio-Rad). HMGB1 concentrations were normalized to cell counts and to the value of untreated control. The experiment was performed twice with duplicate readings.
# HeLa cells [8] = test: ATP secretion; assay type: cell-based, human; conditions: 1× and 3× IC50, 24 h
# Method: HeLa cells were seeded in 24-well plates at a density of 10^4 cells/well, grown overnight, and then treated with the tested complexes for 24 h. Aliquots of culture medium samples were withdrawn, centrifugated (500g, 3 min), and processed with ATP Bioluminescence Assay Kit CLS II, Roche. Briefly, 50 μL of cell-free medium samples were added to a 96-well flat white plate, and an equal volume of luciferase reagent was added. The luminescence was measured immediately on a plate reader (SPARK, Tecan). The blank (no ATP) was subtracted from the raw data. ATP concentrations were obtained from the standard curve and normalized to cell counts and control. The data are shown as MEAN of 4–5 independent measurements.
# COX in HeLa cells = test: COX activity assay (kit) in treated cells; assay type: cell-based, human; conditions: 24 h, 1× IC50,72h, vs untreated control
# Method: The results are expressed relative to the COX activity of untreated control.
# HeLa cells were seeded in 6-well plates at a density of 10^5 cells/well and incubated overnight. The cells were treated with the tested compounds at concentrations corresponding to 1× IC50. Following a 24 h treatment, the cells were lyzed with radioimmunoprecipitation assay (RIPA) buffer supplemented with proteinase inhibitors on ice for 10 min. The extracts were cleared with centrifugation (12,000g/5 min), and protein content was determined using Bradford assay. COX activity was determined with a COX Activity Assay Kit (Abcam). 6 μg of protein was used in the reaction. The experiment was set up according to the manufacturer’s instructions. The fluorescence (Ex/Em 535/587 nm) was read in a kinetic mode, and the COX inhibition was expressed as a percentage of the activity of the untreated control.
# HeLa cells [9] = test: Calreticulin exposure (flow cytometry); assay type: cell-based, human; conditions: 3× IC50, 16–18 h, DAPI-negative cells
# Method: Following the treatment, the cells were harvested (trypsin), washed with FACS buffer (PBS, BSA 1%, and FBS 2%), and incubated with Alexa Fluor 488 Anti-Calreticulin antibody for 40 min at 4 °C. The buffer was removed (CFG, 300 g, 3 min) and replaced with FACS buffer containing DAPI (1 μg mL^–1, 20 min), and the cells were analyzed with flow cytometry (BD FACS Verse) and FCS Express 6 (DeNovo Software, Glendale, CA). Calreticulin fluorescence histograms were analyzed in the DAPI-negative (intact membrane) cell population.
smiles,measurement,setting,value
"Cc1c(C)c2c3c4c1=CC=C[N]4[Pt]([Cl])([Cl])[N]3C=CC=2.N[C@H]1CCCC[C@@H]1N [complex 2, Pt^IV56MeSSCl2]",amount of Pt associated with DNA,[1],1.9 ± 0.1 pg Pt/µg DNA
same,migration activity (wound closing),HeLa cells [2],less efficient in inhibting artificial wound closing
same,IC50,MCF-7,5.9 ± 0.5 µM
same,IC50,A2780cisR,0.4 ± 0.08 µM
same,IC50,HeLa,2.9 ± 0.7 µM
same,IC50,HCT-116,1.6 ± 0.4 µM
same,IC50,MDA-MB-231,1.5 ± 0.4 µM
same,IC50,A2780,0.39 ± 0.01 µM
same,cellular uptake 0.1 μM/24 h,HeLa cells [3],2.2 ± 0.2 ng Pt/10^6 cells
same,cellular uptake 1 μM/6 h,HeLa cells [3],6.2 ± 0.3 ng Pt/10^6 cells
same,cellular uptake 10 μM/6 h,HeLa cells [3],47 ± 2 ng Pt/10^6 cells
same,IC50,MRC-5,2.1 ± 0.4 µM
same,intracellular level of COX-2 protein,COX-2 in HeLa cells,markedly less effective
same,mitochondrial membrane potential Δψm (TMRE fluorescence),HeLa cells [4],insignificant impact on the Δψm
same,log P,[5],–2.1 ± 0.2
"COc1cccc2c1C(=O)c1c(O)c3c(c(O)c1C2=O)C[C@@](O)(C(=O)CO)C[C@@H]3O[C@H]1C[C@H](N)[C@H](O)[C@H](C)O1 [doxorubicin, reference compound]",increase of tumor-cell phagocytosis,[6],slightly less pronounced levels of phagocytosis
"N.N.[Cl][Pt][Cl] [cisplatin, reference compound]",amount of Pt associated with DNA,[1],2.8 ± 0.2 pg Pt/µg DNA
same,IC50,MCF-7,14 ± 3 µM
same,IC50,A2780cisR,20 ± 2 µM
same,IC50,HeLa,15 ± 3 µM
same,IC50,HCT-116,8 ± 1 µM
same,IC50,MDA-MB-231,22 ± 2 µM
same,IC50,A2780,3.5 ± 0.6 µM
same,cellular uptake 0.1 μM/24 h,HeLa cells [3],0.3 ± 0.1 ng Pt/10^6 cells
same,cellular uptake 1 μM/6 h,HeLa cells [3],2.3 ± 0.3 ng Pt/10^6 cells
same,cellular uptake 10 μM/6 h,HeLa cells [3],10 ± 3 ng Pt/10^6 cells
same,IC50,MRC-5,7.3 ± 0.9 µM
"NCCNC(=O)Cc1ccccc1Nc1c(Cl)cccc1Cl [enDCF, diclofenac amide]",HMGB1 secretion,HeLa cells [7],effective as well
same,ATP secretion,HeLa cells [8],effective as well
same,IC50,MCF-7,37 ± 4 µM
same,IC50,HeLa,30 ± 2 µM
same,IC50,HCT-116,27 ± 4 µM
same,IC50,MDA-MB-231,32 ± 3 µM
same,IC50,MRC-5,58 ± 6 µM
same,inhibition of COX activity,COX in HeLa cells,Inhibition of COX activity was also observed
same,externalization of calreticulin,HeLa cells [9],effective as well
same,mitochondrial membrane potential Δψm (TMRE fluorescence),HeLa cells [4],The same effect

# Reference: PMC10291556 (Journal of Medicinal Chemistry, 2023)
